Measurements from PubChem BioAssay AID248 (DTP/NCI, 2004).
Where “and” joins values, the source holds several entries; their conditions need not be identical. Equal values may be shown once. Inconclusive results and toxic doses are left out. Cut-off read from the data, not from the text of the source: active = T/C of 150% or more; inactive = T/C below 125%.

System: L1210 leukemia ip in BDF1 mice, survival T/C
Assay: NCI In Vivo Anticancer Drug Screen. Data for tumor model L1210 Leukemia (intraperitoneal) in B6D2F1 (BDF1) mice
Conditions: higher = longer survival
Outline: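 Value reflects the ratio of survival in compound-treated mice to survival in vehicle-treated controls, with both groups carrying the same transplanted tumor.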

[1] = endpoint: mean survival time, dose: 25.0 mg/kg/injection, schedule: Q01DX009 (ip), vehicle: saline
[2] = endpoint: mean survival time, dose: 25.0 mg/kg/injection, schedule: Q04DX003 (ip), vehicle: Klucel (hydroxypropylcellulose) (HPC)
[3] = endpoint: mean survival time, dose: 50.0 mg/kg/injection, schedule: Q04DX003 (ip), vehicle: Klucel (hydroxypropylcellulose) (HPC)
[4] = endpoint: mean survival time, dose: 100.0 mg/kg/injection, schedule: Q04DX003 (ip), vehicle: Klucel (hydroxypropylcellulose) (HPC)
[5] = endpoint: mean survival time, dose: 200.0 mg/kg/injection, schedule: Q01DX001 (ip), vehicle: saline
[6] = endpoint: mean survival time, dose: 100.0 mg/kg/injection, schedule: Q01DX001 (ip), vehicle: Klucel (hydroxypropylcellulose) (HPC)
[7] = endpoint: mean survival time, dose: 100.0 mg/kg/injection, schedule: Q01DX009 (ip), vehicle: Klucel (hydroxypropylcellulose) (HPC)
[8] = endpoint: mean survival time, dose: 200.0 mg/kg/injection, schedule: Q01DX001 (ip), vehicle: Klucel (hydroxypropylcellulose) (HPC)
[9] = endpoint: mean survival time, dose: 200.0 mg/kg/injection, schedule: Q01DX009 (ip), vehicle: Klucel (hydroxypropylcellulose) (HPC)
[10] = endpoint: mean survival time, dose: 200.0 mg/kg/injection, schedule: Q04DX003 (ip), vehicle: Klucel (hydroxypropylcellulose) (HPC)
[11] = endpoint: mean survival time, dose: 400.0 mg/kg/injection, schedule: Q01DX009 (ip), vehicle: Klucel (hydroxypropylcellulose) (HPC)
[12] = endpoint: mean survival time, dose: 400.0 mg/kg/injection, schedule: Q04DX003 (ip), vehicle: Klucel (hydroxypropylcellulose) (HPC)
[13] = endpoint: mean survival time, dose: 50.0 mg/kg/injection, schedule: Q01DX001 (ip), vehicle: saline
[14] = endpoint: mean survival time, dose: 100.0 mg/kg/injection, schedule: Q01DX001 (ip), vehicle: saline
[15] = endpoint: mean survival time, dose: 100.0 mg/kg/injection, schedule: Q01DX001 (ip), vehicle: carboxymethylcellulose (CMC)
[16] = endpoint: mean survival time, dose: 200.0 mg/kg/injection, schedule: Q01DX001 (ip), vehicle: carboxymethylcellulose (CMC)
[17] = endpoint: mean survival time, dose: 400.0 mg/kg/injection, schedule: Q01DX001 (ip), vehicle: carboxymethylcellulose (CMC)

Measured: T/C

CSc1ncnc2c1ncn2C1OC(CO)C(O)OC1O (stereo not drawn)
inactive: endpoint: mean survival time, dose: 15.0 mg/kg/injection, schedule: Q01DX009 (ip), vehicle: saline 117 % of control | [1] 111 % of control | [2] 104 % of control | endpoint: mean survival time, dose: 45.0 mg/kg/injection, schedule: Q01DX001 (ip), vehicle: saline 106 % of control | endpoint: mean survival time, dose: 45.0 mg/kg/injection, schedule: Q01DX009 (ip), vehicle: saline 119 % of control | [3] 109 % of control | endpoint: mean survival time, dose: 67.0 mg/kg/injection, schedule: Q01DX001 (ip), vehicle: saline 118 % of control | endpoint: mean survival time, dose: 70.0 mg/kg/injection, schedule: Q01DX009 (ip), vehicle: saline 119 % of control | endpoint: mean survival time, dose: 75.0 mg/kg/injection, schedule: Q01DX009 (ip), vehicle: saline 116 % of control | [4] 110 % of control | [5] 112 % of control

O=C(NCc1cnccn1)OCC(Cl)(Cl)Cl
inactive: endpoint: mean survival time, dose: 100.0 mg/kg/injection, schedule: Q01DX009 (ip), vehicle: saline with Tween-80 97 % of control | endpoint: mean survival time, dose: 200.0 mg/kg/injection, schedule: Q01DX009 (ip), vehicle: saline with Tween-80 106 % of control | endpoint: mean survival time, dose: 400.0 mg/kg/injection, schedule: Q01DX009 (ip), vehicle: saline with Tween-80 103 % of control

Fc1cccc(/C=C2/c3cc(Cl)ccc3-c3c(Cl)cc(Cl)cc32)c1
inactive: [6] 93 % of control | [7] 88 % of control | [4] 91 % of control | [8] 91 % of control | [9] 89 % of control | [10] 93 % of control | endpoint: mean survival time, dose: 400.0 mg/kg/injection, schedule: Q01DX001 (ip), vehicle: Klucel (hydroxypropylcellulose) (HPC) 88 % of control | [11] 96 % of control | [12] 88 % of control

CCN(CC)CCC(CNC(=O)CN(CC)CC)(c1cccc2ccccc12)C(C)C (stereo not drawn)
inactive: endpoint: mean survival time, dose: 12.5 mg/kg/injection, schedule: Q01DX009 (ip), vehicle: saline 98 % of control | endpoint: mean survival time, dose: 12.5 mg/kg/injection, schedule: Q04DX003 (ip), vehicle: saline 94 % of control | [1] 93 % of control | endpoint: mean survival time, dose: 25.0 mg/kg/injection, schedule: Q04DX003 (ip), vehicle: saline 110 % of control | endpoint: mean survival time, dose: 50.0 mg/kg/injection, schedule: Q01DX009 (ip), vehicle: saline 90 % of control | endpoint: mean survival time, dose: 50.0 mg/kg/injection, schedule: Q04DX003 (ip), vehicle: saline 104 % of control

O=C(CCCC(=O)NNC(=S)Nc1ccccc1Cl)NNC(=S)Nc1ccccc1Cl
inactive: [13] 96 % of control | [14] 96 % of control | [5] 93 % of control | endpoint: mean survival time, dose: 400.0 mg/kg/injection, schedule: Q01DX001 (ip), vehicle: saline 93 % of control

CN(C)c1ccc(/C=C/c2ccnc3ccccc23)cc1
inactive: endpoint: mean survival time, dose: 4.0 mg/kg/injection, schedule: Q01DX Z (ip), vehicle: saline 103 % of control | endpoint: mean survival time, dose: 5.0 mg/kg/injection, schedule: Q01DX010 (ip), vehicle: saline 94 % of control and 100 % of control | endpoint: mean survival time, dose: 6.0 mg/kg/injection, schedule: Q01DX Z (ip), vehicle: saline 103 % of control | endpoint: mean survival time, dose: 8.0 mg/kg/injection, schedule: Q01DX Z (ip), vehicle: saline 103 % of control | endpoint: mean survival time, dose: 10.0 mg/kg/injection, schedule: Q01DX009 (ip), vehicle: saline 93 % of control and 101 % of control | endpoint: mean survival time, dose: 10.0 mg/kg/injection, schedule: Q01DX010 (ip), vehicle: saline 98 % of control | endpoint: mean survival time, dose: 10.0 mg/kg/injection, schedule: Q01DX Z (ip), vehicle: saline 97 % of control | endpoint: mean survival time, dose: 20.0 mg/kg/injection, schedule: Q01DX009 (ip), vehicle: saline 95 % of control and 97 % of control | endpoint: mean survival time, dose: 20.0 mg/kg/injection, schedule: Q01DX010 (ip), vehicle: saline 100 % of control and 91 % of control | endpoint: mean survival time, dose: 40.0 mg/kg/injection, schedule: Q01DX009 (ip), vehicle: saline 95 % of control and 88 % of control | endpoint: mean survival time, dose: 40.0 mg/kg/injection, schedule: Q01DX010 (ip), vehicle: saline 93 % of control and 100 % of control | [13] 101 % of control | endpoint: mean survival time, dose: 64.0 mg/kg/injection, schedule: Q01DX010 (iv), vehicle: saline 108 % of control | endpoint: mean survival time, dose: 80.0 mg/kg/injection, schedule: Q01DX009 (ip), vehicle: saline 101 % of control | [15] 103 % of control | [14] 97 % of control | endpoint: mean survival time, dose: 128.0 mg/kg/injection, schedule: Q01DX010 (iv), vehicle: saline 87 % of control | [16] 109 % of control | [5] 103 % of control | endpoint: mean survival time, dose: 256.0 mg/kg/injection, schedule: Q01DX010 (iv), vehicle: saline 92 % of control | [17] 106 % of control | endpoint: mean survival time, dose: 800.0 mg/kg/injection, schedule: Q01DX001 (ip), vehicle: carboxymethylcellulose (CMC) 97 % of control | endpoint: median survival time, dose: 10.0 mg/kg/injection, schedule: Q01DX009 (ip), vehicle: saline 100 % of control and 87 % of control | endpoint: median survival time, dose: 20.0 mg/kg/injection, schedule: Q01DX009 (ip), vehicle: saline 100 % of control and 87 % of control | endpoint: median survival time, dose: 40.0 mg/kg/injection, schedule: Q01DX009 (ip), vehicle: saline 93 % of control and 105 % of control | endpoint: median survival time, dose: 80.0 mg/kg/injection, schedule: Q01DX009 (ip), vehicle: saline 100 % of control and 87 % of control

CN(C)CCOC(=O)c1cccc(CCBr)c1
inactive: endpoint: mean survival time, dose: 87.5 mg/kg/injection, schedule: Q01DX009 (ip), vehicle: saline 103 % of control | endpoint: mean survival time, dose: 175.0 mg/kg/injection, schedule: Q01DX009 (ip), vehicle: saline 92 % of control | endpoint: mean survival time, dose: 350.0 mg/kg/injection, schedule: Q01DX009 (ip), vehicle: saline 104 % of control

O=C(Nc1ccccc1O)c1ccc([N+](=O)[O-])cc1
inactive: [7] 100 % of control | [9] 91 % of control | [11] 93 % of control

Cc1ccc2ccc3ccc4ccccc4c3c2c1
inactive: endpoint: mean survival time, dose: 50.0 mg/kg/injection, schedule: Q01DX001 (ip), vehicle: Klucel (hydroxypropylcellulose) (HPC) 101 % of control | [6] 95 % of control | [8] 101 % of control

CCOC(=O)c1cnc(N(C)CC(=O)O)[nH]c1=O
inactive: endpoint: mean survival time, dose: 100.0 mg/kg/injection, schedule: Q04DX002 (ip), vehicle: Klucel (hydroxypropylcellulose) (HPC) 94 % of control | endpoint: mean survival time, dose: 200.0 mg/kg/injection, schedule: Q04DX002 (ip), vehicle: Klucel (hydroxypropylcellulose) (HPC) 94 % of control | endpoint: mean survival time, dose: 400.0 mg/kg/injection, schedule: Q04DX002 (ip), vehicle: Klucel (hydroxypropylcellulose) (HPC) 107 % of control

O=C(O)c1cc(O)ccc1N=Nc1ccccc1
inactive: [15] 95 % of control | [16] 95 % of control | [17] 98 % of control

O=c1[nH]ncn1-c1ccccc1
inactive: [4] 96 % of control | [10] 92 % of control | [12] 91 % of control

Cc1ccccc1CN1CCN(CCOC(c2ccccc2)c2ccccc2Cl)CC1 (stereo not drawn)
inactive: endpoint: mean survival time, dose: 12.5 mg/kg/injection, schedule: Q01DX009 (ip), vehicle: Klucel (hydroxypropylcellulose) (HPC) 97 % of control | endpoint: mean survival time, dose: 25.0 mg/kg/injection, schedule: Q01DX009 (ip), vehicle: Klucel (hydroxypropylcellulose) (HPC) 97 % of control | [2] 107 % of control | endpoint: mean survival time, dose: 50.0 mg/kg/injection, schedule: Q01DX009 (ip), vehicle: Klucel (hydroxypropylcellulose) (HPC) 102 % of control | [3] 100 % of control | [4] 105 % of control | [10] 100 % of control

O=C(CCCc1ccc(N(CCCl)CCCl)cc1)NCc1ccc(N(CCCl)CCCl)cc1
inactive: endpoint: mean survival time, dose: 4.0 mg/kg/injection, schedule: Q12HX018 (sc), vehicle: other 103 % of control | endpoint: mean survival time, dose: 6.0 mg/kg/injection, schedule: Q12HX018 (sc), vehicle: other 103 % of control | endpoint: mean survival time, dose: 8.0 mg/kg/injection, schedule: Q12HX018 (sc), vehicle: other 100 % of control

Cc1ccc(C(=O)Oc2ccc(Cl)c(C)c2Cl)cc1
inactive: endpoint: mean survival time, dose: 75.0 mg/kg/injection, schedule: Q01DX001 (ip), vehicle: carboxymethylcellulose (CMC) 91 % of control | endpoint: mean survival time, dose: 150.0 mg/kg/injection, schedule: Q01DX001 (ip), vehicle: carboxymethylcellulose (CMC) 92 % of control | endpoint: mean survival time, dose: 300.0 mg/kg/injection, schedule: Q01DX001 (ip), vehicle: carboxymethylcellulose (CMC) 92 % of control

CC(=O)Nc1ccc(Cc2ccccc2)cc1[N+](=O)[O-]
inactive: [15] 106 % of control | [16] 98 % of control | [17] 97 % of control
